The source of these data is patent publication US20220031708A1, “METHOD FOR TREATING IDIOPATHIC PULMONARY FIBROSIS” (NuMedii, Inc., priority 2019, published 2022).

Read-outs that look alike come from different tables or passages of the source.

Assay [1] has as its system lung fibroblasts isolated from human IPF donor lungs. The experiment in a line: Fibroblast-to-myofibroblast transition (FMT), aSMA induction by TGFb, IPF donor fibroblasts. The conditions noted are these: 1.25 ng/mL TGFb; for IC50: Homo sapiens, Fibroblast, 72 h, read-out: LogM IC50 aSMA (converted); for LogM IC50 aSMA: 72 hours. The class given is cell-based. On the procedure: (§1) Primary fibroblasts cultured from the lungs of patients with IPF (n=3) or healthy donors (n=3) were exposed to Chk1 inhibitors or control compounds to determine the effect of Chk1 inhibitors on fibroblast differentiation into myofibroblasts (i.e., fibroblast-to-myofibroblast transition [FMT]). […] Chk1 inhibitors were dosed in an 8-point concentration curve 1 hr prior to TGFb treatment. Alpha-SMA and DAPI staining were assessed after 72 hours using high content analysis. The ability of the Chk1 inhibitors to block fibroblast-to-myofibroblast differentiation was determined by quantifying percent inhibition (PIN) of aSMA induction. Cell viability was also measured to determine whether the compounds were cytotoxic.

Assay [2] has as its system Primary fibroblasts cultured from the lungs of healthy donors. The assay is described as follows: Fibroblast-to-myofibroblast transition (FMT), aSMA induction by TGFb, healthy donor fibroblasts. Type of assay: cell-based, human. To be noted: 1.25 ng/mL TGFb; for IC50: Homo sapiens, Fibroblast, 72 h, read-out: LogM IC50 aSMA (converted); for LogM IC50 aSMA: 72 hours. As for the experimental part: as §1

For assay [3], the system named is mouse model of pulmonary fibrosis. The experiment in a line: Bleomycin mouse model of pulmonary fibrosis: histopathology and collagen deposition. The class given is in vivo, C57BL6 mice. The conditions noted are these: for Collagen deposition (% pixel count) / Fiber Alignment / Fiber Count / Fiber Density: relative vs vehicle; for disease burden by collagen deposition, fiber count, fiber density and fiber alignment (Sirius red): FIG. 4A, FIG. 4B, Table 8; for histopathology scores (Ashcroft, Masson's Trichrome): PF-477736 10 or 20 mg/kg i.p., nintedanib 100 mg/kg orally, FIG. 3A. As for the experimental part:
To induce fibrosis, 6-8 week old C57BL6 mice were dosed with 3 mg/kg bleomycin hydrochloride in a volume of 50 μL per animal via intratracheal (i.t.) administration with a microsprayer. One week following administration of bleomycin, mice were treated with compound or vehicle once daily from day 7 to day 20. PF-477736 was administered at a dose of either 10 mg/kg (“med”) or 20 mg/kg (“high”) i.p. in a vehicle of […] sodium acetate buffer and 4% dextrose, pH 4. Nintedanib was administered orally at 100 mg/kg in a vehicle of 1% methylcellulose. n=10 mice per group.
At the end of the study, lungs were processed using standard histological methods for Masson's Trichrome staining and were assigned Ashcroft scores by a blinded pathologist.
Whole lung imaging was performed using a modified deep learning algorithm to calculate an average histogram (FIG. 3B) and empirical cumulative density function (ECDF, FIG. 3C) for each arm. The X axes represent severity of pathology, and the Y axes represent frequency (histograms) or cumulative frequency (ECDF).
Histological sections were also stained using Sirius red and assessed for collagen deposition (%), collagen fiber count, collagen fiber density, and collagen fiber alignment in a protocol modified from Bredfeldt et al. 2014, “Computational segmentation of collagen fibers from second-harmonic generation images of breast cancer.” Journal of biomedical optics 19.1.

For assay [4], the system named is Human lung fibroblasts from three donors. The experiment in a line: FMT assay, Chk1 inhibitor combined with nintedanib or pirfenidone. The class given is cell-based. The conditions noted are these: nintedanib concentration curve, Chk1 inhibitor at pre-determined IC20; FIG. 7.
Procedure: Human lung fibroblasts from three donors were seeded in 96-well plates and treated with 1.25 ng/mL TGFb to induce differentiation to a myofibroblast phenotype (characterized by the induction of alpha smooth muscle actin—aSMA). A Chk1 inhibitor PF-477736, or standard-of-care compounds in IPF (nintedanib or pirfenidone) were dosed as indicated in an 8-point concentration curve 1 hr prior to TGFb treatment. Alpha-SMA and DAPI staining were assessed after 72 hours using high content analysis for percent inhibition of aSMA induction and % viable cells. CRC=concentration response curve. The first noted compound was dosed in an 8-point concentration curve, while the second noted compound was dosed at the pre-determined IC20 in this assay.
For each condition, percent inhibition (PIN) of aSMA induction was calculated (circles, and left y-axis), and the percent of viable cells was calculated (triangles, right y-axis).
The subject of assay [5] is M2 macrophages differentiated from human monocytes. The experiment in a line: M2 macrophage activation, CD163 flow cytometry after IL-4. The class given is cell-based. To be noted: dosed 1 hour before IL-4, 3 days; FIG. 2B. As for the experimental part:
(§2) Human monocytes were isolated from the peripheral blood of IPF patients, exposed to various doses of PF-477736 for 1 hour, and then differentiated into M1 macrophages by exposure to LPS/IFNg, or into M2 macrophages by exposure to IL-4, for 3 days. The cells were analyzed by flow cytometry for CD80 cell surface expression as marker of M1 differentiation, and for CD163 cell surface expression as marker of M2 differentiation. In addition, cell supernatants were tested in a Luminex-based assay for various cytokines and matrix metalloproteinases (MMPs).

Assay [6] has as its system macrophages exposed to LPS and IFNg. The experiment in a line: Luminex-based assay of cytokines and MMPs in macrophage supernatants. The conditions noted are these: FIG. 2C. Type of assay: cell-based, human. As for the experimental part: as §2
Assay [7] concerns M1 macrophages differentiated from human monocytes. The assay is described as follows: M1 macrophage activation, CD80 flow cytometry after LPS/IFNg. The class given is cell-based. The conditions noted are these: dosed 1 hour before LPS/IFNg, 3 days; FIG. 2A. As for the experimental part:
as §2
For orientation: In flow cytometry, cells or beads pass a laser one at a time.

The mark [8] stands for this setting: donor FB0303*, Healthy (aberrant response to nintedanib).
[9] abbreviates: 100 mg/kg orally once daily day 7 to day 20.
The mark [10] stands for this setting: 20 mg/kg i.p. once daily day 7 to day 20.
[11] abbreviates: Multi-dose: mice from both the 10 mg/kg and the 20 mg/kg groups.

The IC50 is the concentration at which inhibition is half-maximal. On to `NC(=O)Nc1cc(-c2cccc(F)c2)sc1C(=O)N[C@H]1CCCNC1` [AZD-7762], for which the IC50 is 794 nM in assay [1] (donor IPF06, IPF); 794 nM in assay [1] (donor IPF07, IPF); 501 nM in assay [1] (donor IPF08, IPF); 1260 nM in assay [2] (donor FB0054, Healthy); 631 nM in assay [2] (donor FB2382, Healthy).
`COc1cc2nc(-c3cc(F)ccc3O)nc(N[C@@H]3CNC[C@H]3C(C)(C)O)c2cc1OC` [CCT-241533]: the IC50 is 631 nM in assay [1] (donor IPF06, IPF); 158 nM in assay [1] (donor IPF07, IPF); 316 nM in assay [1] (donor IPF08, IPF); 398 nM in assay [2] (donor FB0054, Healthy); 501 nM in assay [2] (donor FB2382, Healthy).
For the compound `N#Cc1cnc(Nc2cc(NC[C@H]3CNCCO3)c(C(F)(F)F)cn2)cn1` [CCT-245737], the IC50 in assay [1] (donor IPF06, IPF) was 3160 nM; in assay [1] (donor IPF07, IPF) it was 3160 nM; in assay [1] (donor IPF08, IPF), 3160 nM; in assay [2] (donor FB0054, Healthy), 3160 nM; in assay [2] (setting [8]) it was 2510 nM; in assay [2] (donor FB2382, Healthy) it was 3160 nM.
Take `N[C@@H]1CCCN(c2c(Br)cnc3[nH]cc(NC(=O)C4CC4)c23)C1` [GDC-0575]: the “LogM IC50 aSMA” value in assay [1] (donor IPF06, IPF) is on record as −5.7 LogM; in assay [1] (donor IPF07, IPF) it was −5.7 LogM; in assay [1] (donor IPF08, IPF), −5.8 LogM; in assay [2] (donor FB0054, Healthy), −5.9 LogM; in assay [2] (setting [8]) it was −5.8 LogM; in assay [2] (donor FB2382, Healthy) it was −5.9 LogM.
With `Cn1cc(-c2cnn3c(N)c(Br)c([C@@H]4CCCNC4)nc23)cn1` [MK-8776], the IC50 was 2000 nM in assay [1] (donor IPF06, IPF); 2000 nM in assay [1] (donor IPF07, IPF); 1580 nM in assay [1] (donor IPF08, IPF); 398 nM in assay [2] (setting [8]); 3160 nM in assay [2] (donor FB2382, Healthy).
Take `COC(=O)c1ccc2c(c1)NC(=O)/C2=C(\Nc1ccc(N(C)C(=O)CN2CCN(C)CC2)cc1)c1ccccc1` [Nintedanib]: in assay [3] (setting [9]), the “Collagen deposition (% pixel count)” value is on record as “+0.31 % pixel count”, the “Fiber Alignment” value is on record as −0.03, the “Fiber Count” value was “+20” and the “Fiber Density” value is “+0.40”. For the same compound, in assay [3], the “disease burden by collagen deposition, fiber count, fiber density and fiber alignment (Sirius red)” value is listed as “did not”; the “histopathology scores (Ashcroft, Masson's Trichrome)” value was “improved histopathology scores”. The “concentration of nintedanib required for 50% inhibition of fibroblast to myofibroblast differentiation” value in assay [4] is on record as “lower when co-administered with a Chk1 inhibitor”.
As to `COc1cccc(OCCCN)c1-c1cc(Nc2cnc(C#N)cn2)n[nH]1` [prexasertib], the IC50 was 1000 nM in assay [1] (donor IPF06, IPF); 1000 nM in assay [1] (donor IPF07, IPF); 631 nM in assay [1] (donor IPF08, IPF); 631 nM in assay [2] (donor FB0054, Healthy); 794 nM in assay [2] (donor FB2382, Healthy).
Turning to PF-477736, the “M2 macrophage activation (CD163 cell surface expression)” value in assay [5] is “inhibits M2 macrophage activation in a dose-dependent manner”. The “Collagen deposition (% pixel count)” value in assay [3] (10 mg/kg i.p. once daily day 7 to day 20) is −1.27 % pixel count. In addition, in assay [3] (setting [10]), the “Collagen deposition (% pixel count)” value was −1.64 % pixel count, the “Fiber Alignment” value amounted to 0.08, the “Fiber Count” value is given as −66.3 and the “Fiber Density” value was −0.66. In addition, in assay [3], the “disease burden by collagen deposition, fiber count, fiber density and fiber alignment (Sirius red)” value is recorded as “reduced disease burden by all of these parameters in a dose-dependent manner”; the “histopathology scores (Ashcroft, Masson's Trichrome)” value is “improved histopathology scores”. Further, in assay [3] (setting [11]), the “Collagen deposition (% pixel count)” value was −1.63 % pixel count, the “Fiber Alignment” value was 0.08, the “Fiber Count” value is given as −67.7 and the “Fiber Density” value is listed as −0.69. For the same compound, in assay [3] (deep learning algorithm, FIG. 3B, 3C), the “pathology severity, whole lung imaging (histogram, ECDF)” value is “greater reduction in pathology severity compared to nintedanib”. Besides, the “levels of representative cytokines and matrix metalloproteinases in supernatants” value in assay [6] was “lower levels of representative cytokines and matrix metalloproteinases”. Moreover, in assay [7], the “M1 macrophage activation (CD80 cell surface expression)” value is recorded as “inhibits M1 macrophage activation in a dose-dependent manner”.
